Numbers after ± are expanded uncertainties.
Tests used:
[1] = 101 kPa, Liquid
[2] = φn = volume fraction of the nth substance listed; conditions: 101 kPa, Liquid

CNC(C)=O [N-methylacetamide]
[1]
Conditions	mass density [kg/m3]	speed of sound [m/s]
303.15 K	951.3 ± 2.1	1367 ± 12
308.15 K	945.9 ± 2.2	1362 ± 12
313.15 K	943.6 ± 2.3	1334 ± 12
318.15 K	939.9 ± 2.4	1319 ± 12

CNC(C)=O [N-methylacetamide] + CCOC(=O)CC#N
[2], φ1 = 1
Conditions	mass density [kg/m3]	speed of sound [m/s]
303.15 K	951.3 ± 2.1	1367 ± 17
308.15 K	945.9 ± 2.2	1362 ± 17
313.15 K	943.6 ± 2.3	1334 ± 17
318.15 K	939.9 ± 2.4	1319 ± 17

CNC(C)=O [N-methylacetamide] + CCOC(=O)CCl
[2], φ1 = 1
Conditions	mass density [kg/m3]	speed of sound [m/s]
303.15 K	951.3 ± 2.1	1367 ± 12
308.15 K	945.9 ± 2.2	1362 ± 12
313.15 K	943.6 ± 2.3	1334 ± 12
318.15 K	939.9 ± 2.4	1319 ± 12

CNC(C)=O [N-methylacetamide] + CCOC(C)=O
[2]
Conditions	mass density [kg/m3]	speed of sound [m/s]
303.15 K, φ1 = 0.0538	893.87 ± 1.8	1132 ± 10
303.15 K, φ1 = 0.1843	903.06 ± 1.9	1167 ± 11
303.15 K, φ1 = 0.2972	910.76 ± 1.9	1197 ± 11
303.15 K, φ1 = 0.3991	917.49 ± 1.9	1223 ± 11
303.15 K, φ1 = 0.4982	923.67 ± 1.9	1248 ± 11
303.15 K, φ1 = 0.594	929.3 ± 2	1271 ± 11
303.15 K, φ1 = 0.6955	935.03 ± 2	1295 ± 11
303.15 K, φ1 = 0.7437	937.68 ± 2	1306 ± 12
303.15 K, φ1 = 0.9463	948.19 ± 2.1	1354 ± 12
303.15 K, φ1 = 1	951.3 ± 2.1	1367 ± 12
308.15 K, φ1 = 0.0537	887.58 ± 1.9	1114 ± 10
308.15 K, φ1 = 0.1841	896.86 ± 1.9	1149 ± 10
308.15 K, φ1 = 0.2969	904.58 ± 2	1180 ± 11
308.15 K, φ1 = 0.3988	911.43 ± 2	1208 ± 11
308.15 K, φ1 = 0.4979	917.94 ± 2	1234 ± 11
308.15 K, φ1 = 0.5937	923.93 ± 2.1	1259 ± 11
308.15 K, φ1 = 0.6952	930.02 ± 2.1	1284 ± 11
308.15 K, φ1 = 0.7434	932.86 ± 2.1	1296 ± 11
308.15 K, φ1 = 0.9488	943.96 ± 2.2	1348 ± 12
308.15 K, φ1 = 1	945.9 ± 2.2	1362 ± 12
313.15 K, φ1 = 0.0534	880.97 ± 2	1097 ± 10
313.15 K, φ1 = 0.1833	891.3 ± 2	1132 ± 10
313.15 K, φ1 = 0.2958	899.84 ± 2	1161 ± 11
313.15 K, φ1 = 0.3976	907.15 ± 2.1	1188 ± 11
313.15 K, φ1 = 0.4966	913.79 ± 2.1	1214 ± 11
313.15 K, φ1 = 0.5924	920.09 ± 2.1	1238 ± 11
313.15 K, φ1 = 0.6941	926.71 ± 2.2	1263 ± 11
313.15 K, φ1 = 0.7431	929.67 ± 2.2	1274 ± 11
313.15 K, φ1 = 0.946	941.22 ± 2.2	1322 ± 12
313.15 K, φ1 = 1	943.6 ± 2.3	1334 ± 12
318.15 K, φ1 = 0.0533	875.13 ± 2.1	1074 ± 10
318.15 K, φ1 = 0.1828	886.1 ± 2.1	1113 ± 10
318.15 K, φ1 = 0.2951	894.79 ± 2.1	1144 ± 10
318.15 K, φ1 = 0.3968	902.46 ± 2.2	1172 ± 11
318.15 K, φ1 = 0.4958	909.37 ± 2.2	1198 ± 11
318.15 K, φ1 = 0.5916	915.67 ± 2.2	1223 ± 11
318.15 K, φ1 = 0.6934	922.12 ± 2.2	1249 ± 11
318.15 K, φ1 = 0.7418	925.21 ± 2.3	1261 ± 11
318.15 K, φ1 = 0.9458	937.26 ± 2.3	1309 ± 12
318.15 K, φ1 = 1	939.9 ± 2.4	1319 ± 12

CCOC(C)=O [ethyl acetate]
[1]
Conditions	mass density [kg/m3]	speed of sound [m/s]
303.15 K	888.9 ± 1.8	1119 ± 10
308.15 K	882.6 ± 1.9	1098 ± 10
313.15 K	875.9 ± 2	1081 ± 10
318.15 K	869.6 ± 2	1058 ± 10

CCOC(C)=O [ethyl acetate] + CNC(C)=O
[2], φ2 = 0
Conditions	mass density [kg/m3]	speed of sound [m/s]
303.15 K	888.9 ± 1.8	1119 ± 10
308.15 K	882.6 ± 1.9	1098 ± 10
313.15 K	875.9 ± 2	1081 ± 10
318.15 K	869.6 ± 2	1058 ± 10

CCOC(=O)CCl [ethyl chloroethanoate]
[1]
Conditions	mass density [kg/m3]	speed of sound [m/s]
303.15 K	1139.29 ± 2.6	1229 ± 11
308.15 K	1132.5 ± 2.7	1212 ± 11
313.15 K	1125.9 ± 2.8	1198 ± 11
318.15 K	1119.9 ± 2.9	1177 ± 11
